Results on three compounds are retold here after patent US20220031670A1, “PHARMACEUTICAL COMBINATIONS FOR USE IN THE TREATMENT OF NEOPLASTIC DISEASES” (Basilea Pharmaceutica International AG, priority 2018, published 2022).

Series [1] in a line: Tolerability (body weight, mortalities) in the PAXF1657 pancreatic xenograft model. As to the method:
Animals were housed in individually ventilated cages ([…] Sealsafe™-IVC-System, […], Hohenpeissenberg, Germany), depending on group size, either in type III or type II long cages. They were kept under a 14 L:10D artificial light cycle. The temperature inside the cages was maintained at 25±1° C. with a relative humidity of 40-70% and an air change (AC) rate in the cage of 60-65 AC/hour. Dust-free bedding consisting of aspen wood chips with approximate dimensions of 5×5×1 mm (ABEDD®-LAB & VET Service GmbH, Vienna, Austria, Product Code: LTE E-001) and additional nesting material were used. The cages including the bedding and the nesting material were changed weekly. The animals were fed autoclaved Teklad Global 19% Protein Extruded Diet (T.2019S.12) from Envigo RMS SARL and had access to sterile filtered and acidified (pH 2.5) tap water that was changed twice weekly. Feed and water were provided ad libitum. All materials were autoclaved prior to use. Animals were provided with a nutrient fortified water gel (DietGel® Recovery from ClearH2O, Maine, USA) from day 0 to day 45, which was changed every other day.
Groups of mice (n=10) bearing PAXF1657 tumors were dosed as outlined in Table 1. All doses were adjusted to 10 mL/kg. The control groups received oral doses of vehicle (pH 5 buffered 0.9% NaCl solution). Gemcitabine was administered i.v. and BAL101553 orally. When Gemcitabine and BAL0101553 were dosed in combination, Gemcitabine was administered first followed by a delay of 4 h for the BAL0101553 dosing.
Body weights and tumor volumes were recorded twice weekly until the end of the on day 60. These parameters were analyzed and graphically represented by using GraphPad-Prism™ 7 for Windows according to standard procedure. Tumor growth regression was defined as TV (at day 21)−TV (day 0)<0. […] Tumor free animals at the end of the study time (day 60) were assessed for residual PAXF1657 tumor cells by pathological methods. Skin und subcutaneous tissue including the tumor cell inoculation site from the flank region were resected, preserved in formalin and embedded in paraffin. Sections of approximately 5 μm were mounted on glass slides and stained with hematoxylin/eosin and were evaluated by a trained pathologist, to identify residual tumor cells at the site of injection, and were being reported as positive for the existence of residual tumor cells or as negative for a complete lack of any evidence of residual tumor cells.
Dosing schemes are outlined in Table 1.

In series [2] the test system is patient-derived pancreatic tumour PAXF1657 xenograft. Put plainly: Antitumor efficacy and induction of cures in the patient-derived PAXF1657 pancreatic xenograft model. It is filed as in vivo, female NMRI nu/nu mice. The following applies: for # of regressed tumors (total) / T/C: day 21 after first dose; for # of confirmed cures (total) / # of tumors with TV ≤ 4 mm^3 (total) / % cures: day 60 after first dose (endpoint); for tumor free animals / cures (in words): single agent treatment (BAL101553 even at 16 mg/kg; Gemcitabine SoC). As to the method:
The tumor xenografts are derived from surgical specimens from cancer patients. Following excision at surgery, tumor pieces were subcutaneously implanted into immunodeficient mice and are therefore referred to as patient tumor explants passaged subcutaneously in nude mice or as patient-derived tumor xenografts (PDX). Establishment and characterization of the PDXs was performed following their primary implantation into immunodeficient mice (passage 1). The tumor xenografts were passaged until establishment of a stable growth pattern. At that point, master stocks of early passage PDXs were frozen in liquid nitrogen. Usually, a particular stock batch is only used for a limited number of further passages.
Tumor fragments for implantation were obtained from xenografts in serial passage in female NMRI nu/nu mice (NMRI-Foxn1nu). After removal from donor mice, tumors were cut into fragments (3-4 mm edge length) and placed in PBS containing 10% penicillin/streptomycin. Recipient female mice (10 weeks old NMRI-Foxn1nu animals) were anesthetized by inhalation of isoflurane and received unilateral tumor implants of PAXF1657 tumors subcutaneously in the flank.
Mice and tumor implants were monitored daily until solid tumor growth was detectable in a sufficient number of animals. At randomization, the volume of growing tumors was determined. Tumors were measured (mm) in two dimensions using calipers, and volume was calculated using the formula: Tumor Volume (TV) (mm^3)=(width^2×length)/2. […] Sixteen days after tumor cell implantation, on Day 0 of the study, mice were randomized into groups of 10 animals, with group median tumor volumes of 106.6-109.2 mm^3 and body weights of 25.3-27.0 g.
The solution of BAL101553 with a concentration of 1.6 mg/ml for dosing at 16 mg/kg and as stock solution for the preparation of the other dosing solutions was prepared at the beginning of the study by dissolving 595.2 mg of the provided powder in 300 ml vehicle (stirring/vortexing/sonicating if necessary). The acidity of this solution was adjusted to pH 5 with a 1% sodium acetate solution; afterwards the total volume was adjusted to 372 ml by addition of the vehicle (99.7% (v/v) saline solution (0.9% (w/v) NaCl), 0.3% (v/v) sodium acetate, pH 5). The stock solution was sterile filtered and aliquoted into vials of each 12 ml that were stored at −20° C. One vial was thawed on each dosing day. For the 16 mg/kg dose, the solution was applied undiluted; for 8 mg/kg dose, one volume of the stock solution was diluted with one volume vehicle prior to application; and for 10 mg/kg dose, one volume of the stock solution was diluted with 0.6 volumes vehicle
The Gemcitabine dosing solution at a concentration of 24 mg/ml for dosing at 240 mg/kg was prepared once per week on the dosing day by dissolving 591.89 mg of Gemcitabine-HCl (Gemedac®, Medac Germany) corresponding to 264 mg active pharmaceutical ingredient in 11 ml of the vehicle (0.9% (w/v) NaCl). The dosing solution was administered in a dose volume of 10 ml/kg.
All doses were adjusted to 10 mL/kg. […] Gemcitabine was administered i.v. and BAL101553 orally.
The antitumor effect of the combination treatment with BAL101553 (prodrug of BAL27862) and gemcitabine was evaluated in the established in vivo subcutaneous patient-derived pancreatic mouse xenograft model PAXF1657. By using 3 different dosing regimens of BAL101553 as monotherapy, standard of care (SoC) dosing of gemcitabine monotherapy and the combination treatment of two different dosing regimens of BAL101553 with SoC gemcitabine, the anticancer effect of single agent treatments and of the combined treatments were determined and compared. […]

Series [3] can be described thus: Pharmacokinetic profile in mouse plasma (LC-MS/MS), single agents versus combination. The series is classed as in vivo, PAXF1657 tumor bearing mice. The note with it: 10 minutes to 24 hours, BAL101553 oral, Gemcitabine 240 mg/kg i.v. 4 hours before BAL101553. As to the method:
PAXF1657 tumor bearing mice of the identical strain were treated either with BAL101553 oral 10 mg/kg, Gemcitabine 240 i.v. mg/kg or with a combination of BAL101553 and Gemcitabine where Gemcitabine was administered 4 hours before BAL101553. Control animals received appropriate vehicle control. The mice were dosed until steady state was reached (BAL101553 was dosed d1-d3 and Gemcitabine was dosed on day 3, the doses used for the combination-treatment matched those used in the monotherapy). Blood was taken from every animal according to a determined schedule covering a time window of 10 minutes to 24 hours, processed for plasma and subsequently analyzed by LC-MS/MS for the determination of BAL27862 (parent drug of BAL101553) and Gemcitabine concentrations (ng/ml plasma). Data points represent mean values of ng/ml plasma concentration+/−SEM (n=3 animals). […]
The following calibration ranges in mouse plasma were applied: 1.00 to 500 ng/mL and 10 to 10000 ng/mL for BAL27862 and 10.0 to 10000 ng/mL for BAL101553 and Gemcitabine. Thus, the limit-of-quantitation (LOQ) was: 1 ng/mL for BAL27862 and 10.0 ng/mL for BAL101553 and Gemcitabine. […]

The mark [4] stands for this setting: BAL101553 p.o. 8 mg/kg qd (h:4) x42.
[5] abbreviates: BAL101553 p.o. 10 mg/kg qd (h:4) x42.
The mark [6] stands for this setting: BAL101553 p.o. 16 mg/kg qd (h:4) x42.
[7] abbreviates: Gemcitabine i.v. 240 mg/kg qw (h:0) x6.

The structures appear in SMILES notation. Marks after values point to notes of the source that are not given here.

Regarding `N#CCCNc1nonc1-c1nc2ccccc2n1CC(=O)c1ccc(NC(=O)[C@@H](N)CCCCN)cc1` [BAL101553, (S)-2,6-Diamino-hexanoic acid [4-(2-{2-[4-(2-cyano-ethylamino)-furazan-3-yl]-benzoimidazol-1-yl}-acetyl)-phenyl]-amide], the Mortalities in series [1] (female, NMRI nu/nu, mouse, in vivo, po, 8 mg/kg, 21 day) is recorded as 0/10; in series [1] (female, NMRI nu/nu, mouse, in vivo, po, 10 mg/kg, 21 day) it was 0/10; in series [1] (female, NMRI nu/nu, mouse, in vivo, po, 16 mg/kg, 21 day), 0/10. For the same compound, the “Body-weight change” value in series [1] (mouse, in vivo, po, 8 mg/kg) was 0.9 ± 0.8 g; in series [1] (mouse, in vivo, po, 10 mg/kg), 1.0 ± 1.2 g; in series [1] (mouse, in vivo, po, 16 mg/kg), 1.1 ± 0.9 g. Further, the “# of regressed tumors (total)” value in series [2] (setting [4]), in series [2] (setting [5]) and in series [2] (setting [6]) was 0 (10) throughout. Besides, the T/C in series [2] (setting [4]) was determined as 0.52; in series [2] (setting [5]) it was 0.33; in series [2] (setting [6]), 0.28. For the same compound, the “# of confirmed cures (total)” value in series [2] (setting [4]), in series [2] (setting [5]) and in series [2] (setting [6]) was 0 (10) throughout. Moreover, the “# of tumors with TV ≤ 4 mm^3 (total)” value in series [2] (setting [4]) is 0 (20); in series [2] (setting [5]), 0 (10); in series [2] (setting [6]), 0 (10). Besides, the “% cures” value in series [2] (setting [4]), in series [2] (setting [5]) and in series [2] (setting [6]) was 0% in each case. The “tumor free animals / cures (in words)” value in series [2] is recorded as “did neither lead to tumor free animals”.

Consider `N#CCCNc1nonc1-c1nc2ccccc2n1CC(=O)c1ccc(N)cc1` [BAL27862, 3-(4-{1-[2-(4-Amino-phenyl)-2-oxo-ethyl]-1H-benzoimidazol-2-yl}-furazan-3-ylamino)-propionitrile], for which the “plasma concentrations, single agents versus combination” value in series [3] is “did not change significantly”.

Take `Nc1ccn([C@@H]2O[C@H](CO)[C@@H](O)C2(F)F)c(=O)n1` [Gemcitabine, gemcitabine, reference compound]: in series [1] (Gemcitabine i.v. 240 mg/kg qw (h:0) x6, day 21 after first dose, 1 animal culled on day 8 (body-weight loss of more than 20%)), the Mortalities is 1/10*. The “Body-weight change” value in series [1] (mouse, in vivo, iv, 240 mg/kg) is on record as 0.9 ± 0.8 g. For the same compound, the “plasma concentrations, single agents versus combination” value in series [3] is listed as “did not change significantly”. In addition, in series [2] (setting [7]), the “# of regressed tumors (total)” value is on record as 4 (10), the T/C is listed as 0.03, the “# of confirmed cures (total)” value is given as 0 (10) and the “# of tumors with TV ≤ 4 mm^3 (total)” value is 1 (10). The “% cures” value in series [2] (setting [7]) amounted to 0%. Further, the “tumor free animals / cures (in words)” value in series [2] was “did not lead to tumor free animals (no cures)”. Further, the “tumor regression (in words)” value in series [2] (single agent treatment (BAL101553 even at 16 n/kg; Gemcitabine SoC)) is “induced regression in some of the animals”.
